Results on 17 molecules are retold here after PMC8231400, “Synthesis, biological evaluation and molecular docking investigation of new sulphonamide derivatives bearing naphthalene moiety as potent tubulin polymerisation inhibitors” (Journal of Enzyme Inhibition and Medicinal Chemistry, 2021).

The term IC50 denotes the concentration that gives 50% inhibition.

For series [1], the system named is MCF-7 human breast cancer cells. As to the kind of experiment: In vitro antiproliferative assay (CCK-8), MCF-7. Type of series: cell-based. The following applies: CCK-8, 48 h, mean of three experiments. On the procedure: (§1) In vitro antiproliferative assay 179 Human breast cancer cell line (MCF -7) and human non-small cell lung 180 carcinoma cell line (A549) were used to determine the antiproliferative of 181 the test compounds by CCK -8 assay. The cells were cultured in RPMI 182 media with 10% fetal bovine serum at 37 °C and 5% CO2 in a humidify 183 environment. In a word, cells were seeded in 96 -well plates 184 (1×10^5 cells/well) and cultured for overnight. […] Finally, 186 cell viability was determined by the CCK -8 method. 187 1.3. […] 190 EGTA) with 1 mM GTP and 5% glycerol. Then the plate was 191 immediately transferred to the spectrophotometer and microtubule 192 polymerization was monitored under 340 nm at 37 °C every 1 min over 193 20 min. […] 196 then the cells were treated with different concentrations of compound 5c 7

The test system of series [2] is A549 human non-small cell lung carcinoma cells. In words: In vitro antiproliferative assay (CCK-8), A549. Type of series: cell-based. To be noted: CCK-8, 48 h, mean of three experiments. On the procedure:
as §1

Series [3] is described as follows: Cytotoxicity against human normal liver cell line. The following applies: LO2 normal liver cells. Type of series: cell-based.
Series [4] has as its system tubulin. In words: In vitro tubulin polymerisation inhibitory assay (absorbance 340 nm). Type of series: biochemical. The following applies: 37 °C, 20 min, read-out: IC50 tubulin polymerisation inhibition. How it is done:
In vitro antiproliferative assay 179 Human breast cancer cell line (MCF -7) and human non-small cell lung 180 carcinoma cell line (A549) were used to determine the antiproliferative of 181 the test compounds by CCK -8 assay. The cells were cultured in RPMI 182 media with 10% fetal bovine serum at 37 °C and 5% CO2 in a humidify 183 environment. In a word, cells were seeded in 96 -well plates 184 (1×10^5 cells/well) and cultured for overnight. […] Finally, 186 cell viability was determined by the CCK -8 method. 187 1.3. […] 190 EGTA) with 1 mM GTP and 5% glycerol. Then the plate was 191 immediately transferred to the spectrophotometer and microtubule 192 polymerization was monitored under 340 nm at 37 °C every 1 min over 193 20 min.

Series [5] relates to MCF-7 cancer cells. As to the kind of experiment: Cell cycle assay by flow cytometry (PI). Type of series: cell-based, human. The following applies: 24 h. How it is done: Due to microtubules play an important role in eukaryotic cell division, tubulin polymerisation inhibitors can disrupt regulated cell cycle distribution and block the cell cycle in G2/M phase [21]^,[29]. Therefore, the effect of compound 5c on the cell cycle of MCF-7 cancer cells was evaluated by using flow cytometry. […] 172 51.01, 56.22, 60.63, 107.33, 125.00, 125.21, 125.24, 127.40, 128.17, […] HRMS (ESI) calcd for [M+Na] + 175 C26H24N2NaO7S+: 531.1196 found 531.1162. Elemental analysis for 176 C26H24N2O7S: C, 61.41; H, 4.76; N, 5.51; S, 6.30 found C, 61.52; H, 177 4.702; N, 5.21; S, 6.100. […] In vitro antiproliferative assay 179 Human breast cancer cell line (MCF -7) and human non-small cell lung 180 carcinoma cell line (A549) were used to determine the antiproliferative of 181 the test compounds by CCK -8 assay. The cells were cultured in RPMI 182 media with 10% fetal bovine serum at 37 °C and 5% CO2 in a humidify 183 environment. In a word, cells were seeded in 96 -well plates 184 (1×10^5 cells/well) and cultured for overnight. After incubation, the cells 185 were treated with test compounds and positive control for 48 h. Finally, 186 cell viability was determined by the CCK -8 method. 187 1.3. In vitro tubulin polymerization inhibitory assay 188 Tubulin protein was mixed with different concentrations of compound 5c […] 190 EGTA) with 1 mM GTP and 5% glycerol. Then the plate was 191 immediately transferred to the spectrophotometer and microtubule 192 polymerization was monitored under 340 nm at 37 °C every 1 min over 193 20 min. […] Cell cycle assay 195 MCF-7 cells were seeded into 6-well plates and incubated for 24 h, and 196 then the cells were treated with different concentrations of compound 5c 7 page 8: 197 for 24 h. After incubation, the cells were harvested by centrifugation, and 198 fixed in ice-cold 70% ethanol overnight. After removed the ethanol, the 199 cells were incubated with RNase and propidium iodide. Finally, the 200 samples were analyzed by flow cytometry. 201 1.5. Cell apoptosis assay […] 203 then the cells were treated with different concentrations of compound 5c 204 for 24 h. Subsequently, the cells were incubated with Annexin-V/FITC 205 binding buffer and PI staining solution at room temperature. Finally, the 206 stained cells were analyzed using flow cytometry. 207 1.6. Molecular docking 208 Molecular docking studies were performed to investigate the binding […] The 210 three-dimensional (3D) coordinate of tubulin (PDB ID: 1SA0) was 211 downloaded from Protein Data Bank (www.rcsb.org). The 3D structure of 212 the compounds was obtained by ChemBioDraw Ultra 14.0 and 213 ChemBio3D Ultra 14.0 softwares. The AutoDockTools 1.5.6 package was 214 employed to generate the docking input files. The search grid of tubulin 215 was identified as center_x: 118.921, center_y: 89.718, and center_z: 216 5.932 with dimensions size_x: 15, size_y: 15, and size_z: 15. The value 217 of exhaustiveness was set to 20. For Vina docking, the default parameters 218 were used if it was not mentioned. The best-scoring pose as judged by the 219 Vina docking score was chosen and visually analyzed using PyMoL 1.7.6 220 software (www.pymol.org). 221 1.7 Molecular dynamics 222 The Amber 12 1-3 and AmberTools 13 programs were used for MD 223 simulations of the selected docked pose. MBPPS was first prepared by 224 ACPYPE 4, a tool based on ANTECHAMBER 5, 6 for generating 8

Series [6] relates to MCF-7 cancer cells. As to the kind of experiment: Annexin V-FITC/PI cell apoptosis assay. Type of series: cell-based, human. On the set-up: Q1 quadrant / Q2 quadrant (upper right, late apoptotic cells) / Q4 quadrant / Q3 quadrant (lower right, early apoptotic cells): unit not given here. The following applies: 24 h. How it is done: Since many literatures have reported that tubulin polymerisation inhibitors are able to induce cellular apoptosis [22]^,[30], the Annexin V-FITC/PI assay was carried out to examine the influence of compound 5c on cell apoptosis in MCF-7 cancer cells. […]
201 1.5. Cell apoptosis assay
203 then the cells were treated with different concentrations of compound 5c
204 for 24 h. Subsequently, the cells were incubated with Annexin-V/FITC
205 binding buffer and PI staining solution at room temperature. Finally, the
206 stained cells were analyzed using flow cytometry.
207 1.6. […]

`O=c1[nH]cc(F)c(=O)[nH]1` [5-Fu, 5-fluorouracil, reference compound]: the IC50 in series [1] (Homo sapiens, MCF7) stood at 11.6 ± 0.6 µM; in series [2] (Homo sapiens, A549) it was 2.75 ± 0.31 µM.

With `COc1ccc(CN(c2cc(OC)c(OC)c(OC)c2)S(=O)(=O)c2ccc(C)cc2)cc1` [5a], the IC50 was 3.64 ± 0.25 µM in series [1] (Homo sapiens, MCF7) and 5.34 ± 0.31 µM in series [2] (Homo sapiens, A549).

As for `COc1ccc(CN(c2cc(OC)c(OC)c(OC)c2)S(=O)(=O)c2ccccc2)cc1` [5b], the IC50 is greater than 30 µM in series [1] (Homo sapiens, MCF7) and greater than 30 µM in series [2] (Homo sapiens, A549).

Regarding `COc1ccc(CN(c2cc(OC)c(OC)c(OC)c2)S(=O)(=O)c2cccc3ccccc23)cc1` [5c], the IC50 was determined as 0.51 ± 0.03 µM in series [1] (Homo sapiens, MCF7); 0.33 ± 0.01 µM in series [2] (Homo sapiens, A549); 12.7 ± 3.26 µM in series [3]; 2.8 µM in series [4]. Besides, the G1 population is 44.63% in series [5] (MCF-7, 0.125 μM); 6.61% in series [5] (MCF-7, 0.25 μM); 6.89% in series [5] (MCF-7, 0.50 μM). For the same molecule, the G2/M population in series [5] (MCF-7, 0.125 μM) is reported as 30.77%; in series [5] (MCF-7, 0.25 μM) it was 57.50%; in series [5] (MCF-7, 0.5 µM), 82.22%. Further, the S population in series [5] (MCF-7, 0.125 μM) worked out at 24.59%; in series [5] (MCF-7, 0.25 μM), 35.89%; in series [5] (MCF-7, 0.50 μM), 10.89%. The Q1 quadrant in series [6] (MCF-7, 0.125 μM) is given as 0.88; in series [6] (MCF-7, 0.25 μM), 0.77; in series [6] (MCF-7, 0.50 μM) it was 0.58. For the same molecule, the “Q2 quadrant (upper right, late apoptotic cells)” value amounted to 11.3 in series [6] (MCF-7, 0.125 μM); 12.6 in series [6] (MCF-7, 0.25 μM); 17.7 in series [6] (MCF-7, 0.50 μM). Moreover, the “Q3 quadrant (lower right, early apoptotic cells)” value came out at 7.37 in series [6] (MCF-7, 0.125 μM); 20.5 in series [6] (MCF-7, 0.25 μM); 32.6 in series [6] (MCF-7, 0.50 μM). The Q4 quadrant in series [6] (MCF-7, 0.125 μM) is on record as 80.4; in series [6] (MCF-7, 0.25 μM), 66.1; in series [6] (MCF-7, 0.50 μM) it was 49.2. Further, the “total numbers of early and late apoptotic cells” value in series [6] (MCF-7, 0.125 μM) is given as 18.67%; in series [6] (MCF-7, 0.25 μM), 33.1%; in series [6] (MCF-7, 0.5 µM), 50.3%.

Take `COc1ccc(CN(c2cc(OC)c(OC)c(OC)c2)S(=O)(=O)c2ccc3ccccc3c2)cc1` [5d]: the IC50 is 5.72 ± 0.18 µM in series [1] (Homo sapiens, MCF7) and greater than 30 µM in series [2] (Homo sapiens, A549).

Take `COc1ccc(CN(c2cc(OC)c(OC)c(OC)c2)S(=O)(=O)c2ccc(OC)cc2)cc1` [5e]: the IC50 in series [1] (Homo sapiens, MCF7) is 0.87 ± 0.05 µM; in series [2] (Homo sapiens, A549), 0.62 ± 0.04 µM.

Consider `COc1cccc(CN(c2cc(OC)c(OC)c(OC)c2)S(=O)(=O)c2cccc3ccccc23)c1` [8a], for which the IC50 is 20 ± 0.71 µM in series [1] (Homo sapiens, MCF7) and greater than 30 µM in series [2] (Homo sapiens, A549).

With `COc1cc(N(Cc2ccc(C)cc2)S(=O)(=O)c2cccc3ccccc23)cc(OC)c1OC` [8b], the IC50 in series [1] (Homo sapiens, MCF7) came out at 2.2 ± 0.19 µM; in series [2] (Homo sapiens, A549) it was 1.29 ± 0.19 µM.

Take `COc1cc(N(Cc2cccc(F)c2)S(=O)(=O)c2cccc3ccccc23)cc(OC)c1OC` [8c]: the IC50 is greater than 30 µM in series [1] (Homo sapiens, MCF7) and greater than 30 µM in series [2] (Homo sapiens, A549).

Consider `COc1cc(N(Cc2ccc(Br)cc2)S(=O)(=O)c2cccc3ccccc23)cc(OC)c1OC` [8d], for which the IC50 is 8.02 ± 0.58 µM in series [1] (Homo sapiens, MCF7) and greater than 30 µM in series [2] (Homo sapiens, A549).

With `COc1cc(N(Cc2ccc(Cl)cc2)S(=O)(=O)c2cccc3ccccc23)cc(OC)c1OC` [8e], the IC50 came out at 15.6 ± 0.34 µM in series [1] (Homo sapiens, MCF7) and 14.4 ± 0.8 µM in series [2] (Homo sapiens, A549).

`COc1cc(N(Cc2cccc(Br)c2)S(=O)(=O)c2cccc3ccccc23)cc(OC)c1OC` [8f]: the IC50 was greater than 30 µM in series [1] (Homo sapiens, MCF7) and greater than 30 µM in series [2] (Homo sapiens, A549).

`COc1cc(N(Cc2ccc(F)cc2)S(=O)(=O)c2cccc3ccccc23)cc(OC)c1OC` [8g]: the IC50 in series [1] (Homo sapiens, MCF7) was greater than 30 µM; in series [2] (Homo sapiens, A549), greater than 30 µM.

In the case of `COc1cc(N(Cc2ccc(C#N)cc2)S(=O)(=O)c2cccc3ccccc23)cc(OC)c1OC` [8h], the IC50 in series [1] (Homo sapiens, MCF7) is greater than 30 µM; in series [2] (Homo sapiens, A549) it was greater than 30 µM.

As for `COc1cc(N(Cc2ccccc2[N+](=O)[O-])S(=O)(=O)c2cccc3ccccc23)cc(OC)c1OC` [8i], the IC50 in series [1] (Homo sapiens, MCF7) was greater than 30 µM; in series [2] (Homo sapiens, A549), 4.76 ± 0.31 µM.

Turning to `COc1ccc(/C=C\c2cc(OC)c(OC)c(OC)c2)cc1O` [CA-4, combretastatin A-4, reference compound], the IC50 in series [1] (Homo sapiens, MCF7) was 5.55 ± 0.11 µM; in series [2] (Homo sapiens, A549), 0.029 ± 0.004 µM.

`N.N.[Cl][Pt][Cl]` [Cisplatin, reference compound]: the IC50 is 11.2 ± 0.75 µM in series [1] and 4.92 ± 0.46 µM in series [2].
